Laboratory results published in PubChem BioAssay AID1845202 (Molecular Pharmacology Branch, DTP, NCI, 2023).
Where “and” joins values, the source holds several entries; their conditions need not be identical. Equal values may be shown once.

Test system: DMS 114 tumor spheroids, viability % test/control
Assay: Anticancer human tumor DMS 114 cell line growth inhibition;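 further: spheroids exposed to compounds for 7 days before read-out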;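 on viability, T/C: luminescence used as a proxy for viable cells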
Conditions: spheroids with HUVEC and MSC; for viability, T/C: stronger effect = lower value; active means viability on the fitted dose curve at most 10% of control; inactive means the rest
Summary of the method: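 Complex tumor spheroids combined malignant cells with endothelial cells and mesenchymal stem cells. DNA-damaging drugs and DNA repair inhibitors were tested alone and in combination, at half-log dilutions down from clinical Cmax (top 10 microM if Cmax unknown), 0.25% DMSO final.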

[1] = curve of first compound, second compound 1 µM
[2] = curve of first compound, second compound 3.16 µM
[3] = curve of first compound, second compound 10 µM
[4] = curve of first compound, second compound 31.6 µM
[5] = curve of first compound, second compound 100 µM

COc1ccc([C@@H](O)c2cc(-c3ncnc4cc(N5CCOCC5)ccc34)c(F)cc2Cl)nn1 + Cn1nnc2c(C(N)=O)ncn2c1=O
9930 nM: IC50 [3]
8430 nM: IC50 [1]
5870 nM: IC50 [5]
inactive: viability, T/C (second compound 1 µM, first compound 0.0316 µM) 101% | viability, T/C (second compound 1 µM, first compound 0.1 µM) 103% | viability, T/C (second compound 1 µM, first compound 0.316 µM) 99.3% | viability, T/C (second compound 1 µM, first compound 1 µM) 114% | viability, T/C (second compound 1 µM, first compound 3.16 µM) 94.8% | viability, T/C (second compound 1 µM, first compound 10 µM) 42.3% | viability, T/C (second compound 3.16 µM, first compound 0.0316 µM) 107% | viability, T/C (second compound 3.16 µM, first compound 0.1 µM) 109% | viability, T/C (second compound 3.16 µM, first compound 0.316 µM) 102% | viability, T/C (second compound 3.16 µM, first compound 1 µM) 117% | viability, T/C (second compound 3.16 µM, first compound 3.16 µM) 95.6% | viability, T/C (second compound 3.16 µM, first compound 10 µM) 50.5% | viability, T/C (second compound 10 µM, first compound 0.0316 µM) 100% | viability, T/C (second compound 10 µM, first compound 0.1 µM) 108% | viability, T/C (second compound 10 µM, first compound 0.316 µM) 114% | viability, T/C (second compound 10 µM, first compound 1 µM) 106% | viability, T/C (second compound 10 µM, first compound 3.16 µM) 86.9% | viability, T/C (second compound 10 µM, first compound 10 µM) 49.8% | viability, T/C (second compound 31.6 µM, first compound 0.0316 µM) 104% | viability, T/C (second compound 31.6 µM, first compound 0.1 µM) 95.8% | viability, T/C (second compound 31.6 µM, first compound 0.316 µM) 95.8% | viability, T/C (second compound 31.6 µM, first compound 1 µM) 109% | viability, T/C (second compound 31.6 µM, first compound 3.16 µM) 79.8% | viability, T/C (second compound 31.6 µM, first compound 10 µM) 45% | viability, T/C (second compound 100 µM, first compound 0.0316 µM) 88.8% | viability, T/C (second compound 100 µM, first compound 0.1 µM) 95.8% | viability, T/C (second compound 100 µM, first compound 0.316 µM) 95.1% | viability, T/C (second compound 100 µM, first compound 1 µM) 81.4% | viability, T/C (second compound 100 µM, first compound 3.16 µM) 69.5% | viability, T/C (second compound 100 µM, first compound 10 µM) 34%
8470 nM: IC50 [4]
> 10000 nM: IC50 [2]

CNCc1ccc(-c2cc(-c3nc(-c4ccc(S(=O)(=O)C(C)C)cc4)cnc3N)on2)cc1 + Cn1nnc2c(C(N)=O)ncn2c1=O
178 nM: IC50 [2]
91.6 nM: IC50 [5]
161 nM: IC50 [4]
175 nM: IC50 [3]
186 nM: IC50 [1]
inactive: viability, T/C (second compound 1 µM, first compound 0.00949 µM) 103% | viability, T/C (second compound 1 µM, first compound 0.03 µM) 94.4% | viability, T/C (second compound 1 µM, first compound 0.0949 µM) 80.9% | viability, T/C (second compound 1 µM, first compound 0.3 µM) 28.3% | viability, T/C (second compound 3.16 µM, first compound 0.00949 µM) 102% | viability, T/C (second compound 3.16 µM, first compound 0.03 µM) 103% | viability, T/C (second compound 3.16 µM, first compound 0.0949 µM) 77.6% | viability, T/C (second compound 3.16 µM, first compound 0.3 µM) 27% | viability, T/C (second compound 10 µM, first compound 0.00949 µM) 101% | viability, T/C (second compound 10 µM, first compound 0.03 µM) 99.3% | viability, T/C (second compound 10 µM, first compound 0.0949 µM) 72.7% | viability, T/C (second compound 10 µM, first compound 0.3 µM) 30.2% | viability, T/C (second compound 31.6 µM, first compound 0.00949 µM) 114% | viability, T/C (second compound 31.6 µM, first compound 0.03 µM) 92% | viability, T/C (second compound 31.6 µM, first compound 0.0949 µM) 75.8% | viability, T/C (second compound 31.6 µM, first compound 0.3 µM) 22.4% | viability, T/C (second compound 100 µM, first compound 0.00949 µM) 89.7% | viability, T/C (second compound 100 µM, first compound 0.03 µM) 83.3% | viability, T/C (second compound 100 µM, first compound 0.0949 µM) 47.4% | viability, T/C (second compound 100 µM, first compound 0.3 µM) 16.1%
active: viability, T/C (second compound 1 µM, first compound 0.949 µM) 5.64% | viability, T/C (second compound 1 µM, first compound 3 µM) 0.18% | viability, T/C (second compound 3.16 µM, first compound 0.949 µM) 3.9% | viability, T/C (second compound 3.16 µM, first compound 3 µM) 0.24% | viability, T/C (second compound 10 µM, first compound 0.949 µM) 2.75% | viability, T/C (second compound 10 µM, first compound 3 µM) 0.19% | viability, T/C (second compound 31.6 µM, first compound 0.949 µM) 2.81% | viability, T/C (second compound 31.6 µM, first compound 3 µM) 0.23% | viability, T/C (second compound 100 µM, first compound 0.949 µM) 2.42% | viability, T/C (second compound 100 µM, first compound 3 µM) 0.69%

Cn1ncnc1[C@H]1c2n[nH]c(=O)c3cc(F)cc(c23)N[C@@H]1c1ccc(F)cc1
inactive: viability, T/C (compound 0.00949 µM) 117% and 110% and 92% | viability, T/C (compound 0.03 µM) 94.9% and 113% and 95.8% | viability, T/C (compound 0.0949 µM) 91.3% and 103% and 87.2% | viability, T/C (compound 0.3 µM) 72.8% and 101% and 65.3% | viability, T/C (compound 0.949 µM) 34.5% and 47.5% and 32.3%
9.35% and 15.3% and 10.1%: viability, T/C (compound 3 µM)
611 nM and 901 nM and 514 nM: IC50 (curve of compound)
